# Publication PMC12037410, “Pharmacological targeting of BMAL1 modulates circadian and immune pathways” (Nature Chemical Biology, 2025)
# Molecular target: T1, BMAL1 (Homo sapiens, UniProt O00327)
# Test: not given
# Set-up: PASB domain (residues 338–449); Protein thermal shift (PTS) fragment screen on recombinant human BMAL1(PASB), shift of melting temperature
# Conditions: dTmB; binder
# T1 sequence (O00327 338-449): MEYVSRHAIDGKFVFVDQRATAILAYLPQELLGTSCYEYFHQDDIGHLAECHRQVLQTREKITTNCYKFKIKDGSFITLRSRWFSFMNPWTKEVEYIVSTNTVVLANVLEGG
row,SMILES,Bmal1(PASB) dTmB [°C]
1,"CN1CCN(c2ccc(N)cc2)CC1 [Prestw-Frag-3670, Compound 20]",0.65
2,"CCN1CCCC1CN (stereo not drawn) [Prestw-Frag-3671, Compound 99]",-0.56
3,"Fc1ccc(CN2CCNCC2)cc1 [Prestw-Frag-3673, Compound 274]",-1.00
4,"O=C(c1ccccc1)N1CCNCC1 [Prestw-Frag-3677, Compound 184]",-0.65
5,"COc1ccc2nc[nH]c2c1 [Prestw-Frag-3678, Compound 41]",-0.91
6,"O=C1CC2(CCCC2)CC(=O)N1 [Prestw-Frag-3680, Compound 36]",-2.38
7,"Nc1ccc2c(c1)CCCC2 [Prestw-Frag-3682, Compound 71]",0.33
8,"Nc1ncns1 [Prestw-Frag-3683, Compound 69]",-0.32
9,"CC(=O)c1ccc2c(c1)OCO2 [Prestw-Frag-3686, Compound 57]",-1.06
10,"NCc1ncc[nH]1 [Prestw-Frag-3689, Compound 15]",-1.37
11,"CNC(=O)c1c(-c2ccccc2)noc1C [Prestw-Frag-3690, Compound 210]",-0.42
12,"CN1CCN(CCCC(=O)c2ccc(F)cc2)CC1 [Prestw-Frag-3692, Compound 279]",-0.28
13,"Oc1cccc2[nH]ccc12 [Prestw-Frag-3696, Compound 12]",-0.70
14,"O=C1COc2cc(O)ccc21 [Prestw-Frag-3703, Compound 77]",0.62
15,"c1ccc(C2COCCN2)cc1 (stereo not drawn) [Prestw-Frag-3705, Compound 182]",-0.30
16,"CC(C(=O)O)c1cccc(F)c1 (stereo not drawn) [Prestw-Frag-3706, Compound 79]",0.26
17,"NC1CCc2[nH]c3ccccc3c2C1 (stereo not drawn) [Prestw-Frag-3709, Compound 361]",1.14
18,"O=C(O)C(c1ccccc1)c1ccccc1 [Prestw-Frag-3711, Compound 127]",-0.11
19,"c1ccc(C2CCCNCC2)cc1 (stereo not drawn) [Prestw-Frag-3712, Compound 230]",-0.85
20,"Oc1ccc2c(c1)CCC2 [Prestw-Frag-3713, Compound 89]",-0.82
21,"NC1CCC(=O)NC1=O (stereo not drawn) [Prestw-Frag-3716, Compound 102]",-0.05
22,"CC(O)(C(=O)O)c1ccccc1 (stereo not drawn) [Prestw-Frag-3717, Compound 103]",-0.01
23,"O=C1CNCN1 [Prestw-Frag-3718, Compound 116]",-0.07
24,"c1cncc(CN2CCNCC2)c1 [Prestw-Frag-3722, Compound 288]",-0.77
25,"NC(=O)N1CCNCC1 [Prestw-Frag-3723, Compound 152]",0.03
26,"Cc1n[nH]c(C)c1N [Prestw-Frag-3724, Compound 23]",-1.19

row,SMILES,Bmal1(PASB) dTmB [°C]
1,"FC(F)(F)c1ccn[nH]1 [Prestw-Frag-3726, Compound 192]",0.30
2,"OCC1CCNCC1 [Prestw-Frag-3727, Compound 325]",0.08
3,"OCC1CCCNC1 (stereo not drawn) [Prestw-Frag-3728, Compound 390]",-0.26
4,"c1cc(N2CCNCC2)ncn1 [Prestw-Frag-3729, Compound 289]",-0.01
5,"N#CCC(=O)N1CCCCC1 [Prestw-Frag-3730, Compound 302]",0.12
6,"CCN(CC)C(=O)CC#N [Prestw-Frag-3731, Compound 282]",-0.04
7,"c1ccc2c(c1)NCCO2 [Prestw-Frag-3732, Compound 54]",0.57
8,"CC(C)(CN)c1ccccc1 [Prestw-Frag-3733, Compound 285]",-0.30
9,"O=c1[nH]cncc1-c1ccccc1 [Prestw-Frag-3734, Compound 254]",-0.26
10,"Oc1ccccc1N1CCNCC1 [Prestw-Frag-3738, Compound 34]",0.10
11,"COc1ccc2c(c1)CCC(C(=O)O)C2 (stereo not drawn) [Prestw-Frag-3739, Compound 163]",0.52
12,"Cn1c(N)nc2ccccc21 [Prestw-Frag-3740, Compound 377]",-0.10
13,"OCc1ccc2c(c1)OCO2 [Prestw-Frag-3741, Compound 372]",-0.20
14,"Cc1nc(-c2ccccc2)cs1 [Prestw-Frag-3743, Compound 378]",-0.52
15,"c1ccc(-n2ccnc2)cc1 [Prestw-Frag-3744, Compound 409]",-0.78
16,"Cc1nc(-c2ccccc2F)cs1 [Prestw-Frag-3745, Compound 298]",-0.20
17,"NCCc1ccc(F)cc1F [Prestw-Frag-3746, Compound 138]",-0.34
18,"NCc1cscn1 [Prestw-Frag-3747, Compound 29]",-1.05
19,"NCCOCc1ccccc1 [Prestw-Frag-3749, Compound 335]",0.05
20,"c1ccc2c(c1)CCNCC2 [Prestw-Frag-3750, Compound 343]",-0.06
21,"NCC1(c2ccccc2)CC1 [Prestw-Frag-3751, Compound 367]",-0.24
22,"Cc1[nH]cnc1CO [Prestw-Frag-3752, Compound 153]",0.29
23,"c1ncc(C2CCNCC2)[nH]1 [Prestw-Frag-3753, Compound 303]",-0.23
24,"CC(=O)C1CCNCC1 [Prestw-Frag-3756, Compound 333]",-0.19
25,"CC1CCC(=O)O1 (stereo not drawn) [Prestw-Frag-3757, Compound 251]",-0.06
26,"c1ccc(-n2cccn2)cc1 [Prestw-Frag-3759, Compound 239]",-0.29

# Same assay, conditions: dTmB; binder; Bmal1(PASB) dTmB
row,SMILES,Bmal1(PASB) dTmB [°C]
1,"CC1=NN(c2ccccc2)C(=O)C1 [Prestw-Frag-3742, Compound 81]",1.77

# Molecular target: T1, BMAL1
# Test: ITC; also crystal structure ([…] Å), SPR (Kd […]), PTS (ΔTm […] °C), CETSA (EC50 […])
# Type: binding
# Set-up: PASB domain (338–449 amino acids)
# Conditions: not given
row,SMILES,Kd [nM]
1,"CCc1ccc(OCC(F)CO)c2occc12 (racemic) [compound 4, CCM]",1990 ± 380
